Test results taken from patent publication US7951232B2, “Surface coating compositions and methods” (Elevance Renewable Sciences, Inc., priority 2006, dated 2011).

Experiments:
Format in all cases: cell-based
[1] = system: Cladosporium cladosporiodes ATCC 16022; assay: Dry film preservative test, growth on PDA agar surface
Experimental: (§1) The efficacy of 9-decenoic acid and the methyl ester of 9-decenoic acid as a dry film preservative was determined through the incubation of Trichoderma virens ATCC 9645, Cladosporium cladosporiodes ATCC 16022 and Aureobasidium pullulans ATCC 12536 in the presence of varying concentrations of 9-decenoic acid or the methyl ester of 9-decenoic acid on an agar surface.
(§2) Fungal spores were hydrated overnight in 0.1% Tween 80 and then plated on Potato Dextrose Agar (PDA) and incubated at 25-30° C. for 6 days. The spores were washed from the surface with 5 mls of 0.1% Tween 80 and enumerated.
(§3) PDA plates with prepared according to the manufactures instructions through sterilization. The agar was tempered to approximately 50° C. and filter sterilized 9-decenoic acid was added to achieve concentrations of 0.1, 0.5 and 1.0% in the agar. Additionally, one concentration of the methyl ester of 9-decenoic acid (0.5%) was also prepared. The agar was thoroughly mixed and poured into sterile petri plates and allowed to solidify.
(§4) The agar plates were inoculated with the spore solution to achieve 10^2 spores/plate. The plates were incubated at 25-30° C. in Ziploc bags with a wet paper towel to keep the moisture level high. The plates were examined for growth after 4, 7, 16, 24 and 31 days. The percent coverage of growth on the agar surface was recorded at each sample point.

[2] = system: Aureobasidium pullulans ATCC 12536; assay: as above
Experimental: as §1, §2, §3, §4

[3] = system: Trichoderma virens ATCC 9645; assay: as above
Experimental: as §1, §2, §3, §4

[4] = system: Aureobasidium pullulans (ATCC 12536); assay: MIC on Potato Dextrose Agar surface; settings: PDA agar, 25-30° C., least concentration that completely inhibited growth
Experimental: The efficacy of antimicrobial compositions in accordance with aspects of the invention against the following organisms was determined as follows. The following organisms were incubated in the presence of varying concentrations of 9-decenoic acid (9-DA) on an agar surface: Aspergillus parasiticus (ATCC 56857), Trichoderma virens (ATCC 9645), Aureobasidium pullulans (ATCC 12536), Aspergillus flavus (ATCC 96045), Cladosporium cladosporiodes (ATCC 16022), Aspergillus flavus (ATCC 5917), Aspergillus oryzae (ATCC 10124), Aspergillus parasiticus (ATCC 13539), Ulocladium atrum (ATCC 52426), Candida albicans (ATCC 11651), Alternaria alternata (ATCC 52170), Stachybotrys chartarum (ATCC 16026), Aspergillus niger (ATCC 11414).
Fungal spores were hydrated in 0.1% Tween 80 and then plated onto Potato Dextrose Agar (PDA) (Difco # 213400; Becton, Dickinson and Company, Sparks, Md.) and incubated at 25-30° C. for six (6) days. The spores were washed from the surface with 5 ml of 0.1% Tween 80 and enumerated.
PDA plates were prepared according to the manufacturer's instructions through sterilization. The agar was tempered to approximately 50° C. and was filter sterilized. […]
The agar plates were inoculated with the spore solution to achieve 10^2 spores/plate. […] The percent coverage of growth on the agar surface was recorded at each sample point.

C=CCCCCCCCC(=O)O [9-decenoic acid]
Percentage coverage of agar surface ([1]; 0.1% in PDA agar, 4 days): 0% | Percentage coverage of agar surface ([1]; 0.1% in PDA agar, 7 days): 0% | Percentage coverage of agar surface ([1]; 0.1% in PDA agar, 16 days): 0% | Percentage coverage of agar surface ([1]; 0.1% in PDA agar, 24 days): 0% | Percentage coverage of agar surface ([1]; 0.1% in PDA agar, 31 days): 0% | Percentage coverage of agar surface ([1]; 0.5% in PDA agar, 4 days): 0% | Percentage coverage of agar surface ([1]; 0.5% in PDA agar, 7 days): 0% | Percentage coverage of agar surface ([1]; 0.5% in PDA agar, 16 days): 0% | Percentage coverage of agar surface ([1]; 0.5% in PDA agar, 24 days): 0% | Percentage coverage of agar surface ([1]; 0.5% in PDA agar, 31 days): 0% | Percentage coverage of agar surface ([1]; 1.0% in PDA agar, 4 days): 0% | Percentage coverage of agar surface ([1]; 1.0% in PDA agar, 7 days): 0% | Percentage coverage of agar surface ([1]; 1.0% in PDA agar, 16 days): 0% | Percentage coverage of agar surface ([1]; 1.0% in PDA agar, 24 days): 0% | Percentage coverage of agar surface ([1]; 1.0% in PDA agar, 31 days): 0% | effectiveness as dry film preservative ([1]; at 0.1% for up to 31 days): effective | Percentage coverage of agar surface ([2]; 0.1% in PDA agar, 4 days): 0% | Percentage coverage of agar surface ([2]; 0.1% in PDA agar, 7 days): 0% | Percentage coverage of agar surface ([2]; 0.1% in PDA agar, 16 days): 0% | Percentage coverage of agar surface ([2]; 0.1% in PDA agar, 24 days): 0% | Percentage coverage of agar surface ([2]; 0.1% in PDA agar, 31 days): 0% | Percentage coverage of agar surface ([2]; 0.5% in PDA agar, 4 days): 0% | Percentage coverage of agar surface ([2]; 0.5% in PDA agar, 7 days): 0% | Percentage coverage of agar surface ([2]; 0.5% in PDA agar, 16 days): 0% | Percentage coverage of agar surface ([2]; 0.5% in PDA agar, 24 days): 0% | Percentage coverage of agar surface ([2]; 0.5% in PDA agar, 31 days): 0% | Percentage coverage of agar surface ([2]; 1.0% in PDA agar, 4 days): 0% | Percentage coverage of agar surface ([2]; 1.0% in PDA agar, 7 days): 0% | Percentage coverage of agar surface ([2]; 1.0% in PDA agar, 16 days): 0% | Percentage coverage of agar surface ([2]; 1.0% in PDA agar, 24 days): 0% | Percentage coverage of agar surface ([2]; 1.0% in PDA agar, 31 days): 0% | effectiveness as dry film preservative ([2]; at 0.1% for up to 31 days): effective | Percentage coverage of agar surface ([3]; 0.1% in PDA agar, 4 days): 0% | Percentage coverage of agar surface ([3]; 0.1% in PDA agar, 7 days): 0% | Percentage coverage of agar surface ([3]; 0.1% in PDA agar, 16 days): 0% | Percentage coverage of agar surface ([3]; 0.1% in PDA agar, 24 days): 0% | Percentage coverage of agar surface ([3]; 0.1% in PDA agar, 31 days): 0% | Percentage coverage of agar surface ([3]; 0.5% in PDA agar, 4 days): 0% | Percentage coverage of agar surface ([3]; 0.5% in PDA agar, 7 days): 0% | Percentage coverage of agar surface ([3]; 0.5% in PDA agar, 16 days): 0% | Percentage coverage of agar surface ([3]; 0.5% in PDA agar, 24 days): 0% | Percentage coverage of agar surface ([3]; 0.5% in PDA agar, 31 days): 0% | Percentage coverage of agar surface ([3]; 1.0% in PDA agar, 4 days): 0% | Percentage coverage of agar surface ([3]; 1.0% in PDA agar, 7 days): 0% | Percentage coverage of agar surface ([3]; 1.0% in PDA agar, 16 days): 0% | Percentage coverage of agar surface ([3]; 1.0% in PDA agar, 24 days): 0% | Percentage coverage of agar surface ([3]; 1.0% in PDA agar, 31 days): 0% | effectiveness as dry film preservative ([3]; at 0.1% for up to 31 days): effective | MIC [4]: 0.01%
